Measurements reported in US8017162B2, “Anti-inflammatory agent” (Oryza Oil & Fat Chemical Co., Ltd., priority 2005, dated 2011).
Several values for one entry are separate records, joined by “and”; a condition that tells them apart may be missing. Equal values may be shown once. Entries after “also recorded” stand apart in the source; their conditions may differ.

Assays:
[1] = test system: RAW264.7 cells; assay: NO production inhibition test (LPS, Griess Method); type: cell-based, mouse
Description: A 200 microliter each of the continuously-cultivated RAW264.7 cells (10^6 cells/mL) should be seeded into 48-well plate. After 24 hours, replace the culture medium with a serum-free culture medium. Then, add the LPS (final concentration: 10 microgram/mL) and samples (Examples 1 & 2), and then cultivate for 24 hours. Collect the supernatant (100 microliter) and determine the amount of NO by the Griess Method.

[2] = test system: adjuvant arthritis; assay: Preventive effect on adjuvant arthritis: edema volume of the tarsus (footpad volume); type: in vivo, rats
Excerpt: Firstly, subcutaneously administer the adjuvant to the right tarsus of the rats under the following condition so that the arthritis is caused in the mice. On the second day that the arthritis is induced, orally administer the red ginger extract to the rats for four consecutive weeks by the following method, and regularly observe the tarsus edema of the rats and the anti-inflammatory effect of the test substance. Weigh at once the two-day doses of the red ginger extract as the test substance described in Example 1, and use the red ginger extract suspended with the 0.5% CMC-Na. At this time, prepare the high-dose test substance (10 mg/5 mL/kg). Then, […] the liquid to prepare the low-dose test substance (1 mg/5 mL/kg). Weigh the necessary amount of Indomethacin (Lot No. 122K0718, Sigma-Aldrich, Inc.) which is commercially available. Then prepare freshly the positive control substance with the injection solvent until it becomes 0.5 mg/5 mL/kg. Then, dispose of it after all the administrations have been completed. 2. Firstly, obtain 28 mice (7-week-old, SD (CrjBgi:CD) IGS mice, male SPF) from ORIENT CO., LTD. Then, quarantine and naturalize the mice for more than 7 days. After observing the mice during the period of naturalization and quarantine, use the mice that are alive and which have no problems in the weight and general status. When the mice were grouped, the weight ranged from 279.3 to 328.7 g. When the inflammation was induced, the weight ranged from 283.7 to 333.9 g. When the autopsy was conducted, the weight ranged from 293.4 g to 440.8 g. 3. Administration The test substance was forcibly administered to the mice through a stomach sonde or syringe once a day for a period of 28 days after the inflammation was induced. As shown in the chart below, there are 4 groups, and each group has seven examples (i.e. 7 mice). The test substance was orally administered to each mouse for 28 days from the day after the inflammation was induced. During the period when the test substance was administered, the edema of the right tarsus of each mouse was X-rayed twice a week. From the day after the test was completed, the right and left tarsuses of each mouse were X-rayed twice a week, and the effect of the test substance on the bone was verified. The solution (1.0 mg/0.1 mL) was made from 1 mL of FREUND'S INCOMPLETE ADJUTANT (FIA) and 10 mg of killed bacteria (fungus body)—MYCOBACTERIUM BUTYRICUM (Lot Ni. 5129117, Difco). The FIA and the killed bacteria were sufficiently suspended, and then approx. […] of the solution was administered to the subcutaneous of the footpads of the right, hind leg of each mouse. To verify the degree and the increase of the edema volume before and after the adjuvant was induced, the footpad volume of the right hind leg was measured by using Digital Pletysmometer, LE7500 (Panlab SL, Spain) twice each time immediately before the adjuvant was induced, and again on Days 3, 6, 10, 13, 17, 20, 24 and 27 after the adjuvant was induced. Each measured value was determined by Dunnet's Test using the Graphad Instat Program (Ver. 4.5, USA), and the significant difference test was conducted.

[3] = test system: adjuvant arthritis; assay: Adjuvant arthritis: X-ray determination of tarsus and interphalangeal articulation (radiographic index); type: in vivo, rats; conditions: 0.5 mg/kg
Excerpt: Firstly, subcutaneously administer the adjuvant to the right tarsus of the rats under the following condition so that the arthritis is caused in the mice. On the second day that the arthritis is induced, orally administer the red ginger extract to the rats for four consecutive weeks by the following method, and regularly observe the tarsus edema of the rats and the anti-inflammatory effect of the test substance. 2. Firstly, obtain 28 mice (7-week-old, SD (CrjBgi:CD) IGS mice, male SPF) from ORIENT CO., LTD. Then, quarantine and naturalize the mice for more than 7 days. After observing the mice during the period of naturalization and quarantine, use the mice that are alive and which have no problems in the weight and general status. When the mice were grouped, the weight ranged from 279.3 to 328.7 g. When the inflammation was induced, the weight ranged from 283.7 to 333.9 g. When the autopsy was conducted, the weight ranged from 293.4 g to 440.8 g. 3. Administration The test substance was forcibly administered to the mice through a stomach sonde or syringe once a day for a period of 28 days after the inflammation was induced. As shown in the chart below, there are 4 groups, and each group has seven examples (i.e. 7 mice). The test substance was orally administered to each mouse for 28 days from the day after the inflammation was induced. During the period when the test substance was administered, the edema of the right tarsus of each mouse was X-rayed twice a week. From the day after the test was completed, the right and left tarsuses of each mouse were X-rayed twice a week, and the effect of the test substance on the bone was verified. The solution (1.0 mg/0.1 mL) was made from 1 mL of FREUND'S INCOMPLETE ADJUTANT (FIA) and 10 mg of killed bacteria (fungus body)—MYCOBACTERIUM BUTYRICUM (Lot Ni. 5129117, Difco). The FIA and the killed bacteria were sufficiently suspended, and then approx. […] of the solution was administered to the subcutaneous of the footpads of the right, hind leg of each mouse. On the 27th day after the administration was begun, the edema was taken out. The hind leg was affixed with the neutral buffered formalin fixative (10%), and the image of the tarsus articulation area, including the interphalangeal articulation, was taken by a soft X-ray. The tarsus articulation and the interphalangeal articulation were verified by the degrees between −(normal status) and 5+(most serious status). A radiographic index was obtained by the method as shown in Chart 2, below. Add up the figures to determine the severity of the articular destruction. [table]

[4] = 1 μg/mL, LPS 10 microgram/mL, 24 hours, average ± SD
[5] = right leg, individual animals, listed as Indomet hacin
[6] = right leg, individual animals, listed as indomethacin

`CCC[C@H](O)CC(=O)CCc1ccc(O)c(OC)c1` [Example 4-gingerol, 4-gingerol] gave an NO in supernatant [1, 4] of 4.98 ± 0.22 µM, an NO in supernatant ([1]; 3 μg/mL) of 5.10 ± 0.24 µM and an NO in supernatant ([1]; 10 μg/mL) of 4.98 ± 0.22 µM. For the same molecule, the NO in supernatant ([1]; 30 μg/mL) was 5.03 ± 0.45 µM and the NO in supernatant ([1]; 100 μg/mL) was 4.98 ± 0.26 µM.

With `CCCCC/C=C/C(=O)CCc1ccc(O)c(OC)c1` [Example 6-shogaol, 6-shogaol] the NO in supernatant [1, 4] was 3.81 ± 0.29 µM, the NO in supernatant ([1]; 3 μg/mL) was 3.60 ± 0.29 µM and the “Inhibition ratio (NO production)” value ([1]; 10 μg/mL) was “(13.6) %”. The NO in supernatant ([1]; 10 μg/mL) was 3.21 ± 0.31 µM, the “Inhibition ratio (NO production)” value ([1]; 30 μg/mL) was “(29.8) %” and the NO in supernatant ([1]; 30 μg/mL) was 2.79 ± 0.09 µM. For the same molecule, the “Inhibition ratio (NO production)” value ([1]; 100 μg/mL) was “(90.7) %”, the NO in supernatant ([1]; 100 μg/mL) was 1.22 ± 0.04 µM and the “Effect on NO production among the ingredients” value ([1]; compared with the other components) was “comparatively strong effect”.

`CCCCCCC[C@H](O)CC(=O)CCc1ccc(O)c(OC)c1` [Example 8-gingerol, 8-gingerol] was tested, and the “Inhibition ratio (NO production)” value ([1]; 1 μg/mL) was “(4.7) %”, the NO in supernatant [1, 4] was 4.17 ± 0.27 µM and the “Inhibition ratio (NO production)” value ([1]; 3 μg/mL) was “(7.7) %”. The NO in supernatant ([1]; 3 μg/mL) was 4.06 ± 0.24 µM, the “Inhibition ratio (NO production)” value ([1]; 10 μg/mL) was “(13.3) %” and the NO in supernatant ([1]; 10 μg/mL) was 3.86 ± 0.32 µM. For the same molecule, the “Inhibition ratio (NO production)” value ([1]; 30 μg/mL) was “(20.7) %”, the NO in supernatant ([1]; 30 μg/mL) was 3.59 ± 0.21 µM and the “Inhibition ratio (NO production)” value ([1]; 100 μg/mL) was “(31.5) %”. It also gave an NO in supernatant ([1]; 100 μg/mL) of 3.20 ± 0.17 µM.

With `CCCCCCCCC[C@H](O)CC(=O)CCc1ccc(O)c(OC)c1` [Example 10-gingerol, 10-gingerol] the NO in supernatant [1, 4] was 4.44 ± 0.27 µM, the NO in supernatant ([1]; 3 μg/mL) was 4.32 ± 0.16 µM and the NO in supernatant ([1]; 10 μg/mL) was 4.33 ± 0.50 µM. The NO in supernatant ([1]; 30 μg/mL) was 4.28 ± 0.72 µM, the “Inhibition ratio (NO production)” value ([1]; 100 μg/mL) was “(21.1) %” and the NO in supernatant ([1]; 100 μg/mL) was 3.55 ± 0.08 µM.

In the case of `CCCCCCCCC/C=C/C(=O)CCc1ccc(O)c(OC)c1` [Example 10-shogaol, 10-shogaol], the “Inhibition ratio (NO production)” value ([1]; 1 μg/mL) is reported as “(23.4) %”, the NO in supernatant [1, 4] is reported as 2.78 ± 0.10 µM and the “Inhibition ratio (NO production)” value ([1]; 3 μg/mL) is reported as “(18.5) %”. The NO in supernatant ([1]; 3 μg/mL) was 2.88 ± 0.11 µM, the “Inhibition ratio (NO production)” value ([1]; 10 μg/mL) was “(24.4) %” and the NO in supernatant ([1]; 10 μg/mL) was 2.76 ± 0.10 µM. The “Inhibition ratio (NO production)” value ([1]; 30 μg/mL) was “(28.3) %”, the NO in supernatant ([1]; 30 μg/mL) was 2.68 ± 0.70 µM and the “Inhibition ratio (NO production)” value ([1]; 100 μg/mL) was “(31.2) %”. For the same molecule, the NO in supernatant ([1]; 100 μg/mL) was 2.62 ± 0.71 µM.

`COc1ccc2c(c1)c(CC(=O)O)c(C)n2C(=O)c1ccc(Cl)cc1` [Indomethacin] was tested, and the “Edema volume of the tarsus, right tarsus” value ([2]; 0.5 mg/kg oral once a day, Day 0 (before induction)) was 1.81 ± 0.07 mL, the “Edema volume of the tarsus, right tarsus” value ([2]; 0.5 mg/kg, Day 3) was 3.35 ± 0.18 mL and the “Edema volume of the tarsus, right tarsus” value ([2]; 0.5 mg/kg, Day 3, listed as indomethacin) was 3.35 mL. For the same molecule, the “Edema volume of the tarsus, right tarsus” value ([2]; 0.5 mg/kg, Day 6) was 3.69 ± 0.40 mL, the “Edema volume of the tarsus, right tarsus” value ([2]; 0.5 mg/kg, Day 10) was 3.69 ± 0.36 mL and the “Edema volume of the tarsus, right tarsus” value ([2]; 0.5 mg/kg, Day 13) was 3.40 ± 0.43 mL. For the same molecule, the “Edema volume of the tarsus, right tarsus” value ([2]; 0.5 mg/kg, Day 17) was 3.11 ± 0.59 mL, the “Edema volume of the tarsus, right tarsus” value ([2]; 0.5 mg/kg, Day 20) was 3.18 ± 0.52 mL and the “Edema volume of the tarsus, right tarsus” value ([2]; 0.5 mg/kg, Day 24) was 3.19 ± 0.51 mL. The “Edema volume of the tarsus, right tarsus” value ([2]; 0.5 mg/kg, Day 24, listed as indomethacin) was 3.19 mL, the “Edema volume of the tarsus, right tarsus” value ([2]; 0.5 mg/kg, Day 27) was 2.89 ± 0.34 mL and the “Degree of disorder compared to the vehicle group” value [3] was “remarkably suppressed”. For the same molecule, the “Result (X-ray determination)” value ([3]; right leg, individual animals) was 2+ (Moderate(−): 2+; 2points), the “Interphal angeal articulation: Bone destruction” value [3, 5] was “− (Normal: −; 0 point); also recorded: + (Mild: +; 1 point)” and the “Interphal angeal articulation: Periostitis” value [3, 5] was “+ (Mild: +; 1 point); also recorded: − (Normal: −; 0 point)”. The “Interphal angeal articulation: Total” value [3, 5] was 1 points (5×) and 0 points and 2 points, the “Tarsus articulation: Bone destruction” value [3, 5] was “− (Normal: −; 0 point); also recorded: + (Mild: +; 1 point)” and the “Tarsus articulation: Periostitis” value [3, 5] was 2+ (Moderate(−): 2+; 2points) (6×) and 3+ (Moderate(+): 3+; 3 ponts). For the same molecule, the “Tarsus articulation: Total” value [3, 5] was 2 points (2×) and 3 points (4×) and 4 points, the “Interphal angeal articulation: Bone destruction” value [3, 6] was “+ (Mild: +; 1 point)” and the “Interphal angeal articulation: Periostitis” value [3, 6] was “+ (Mild: +; 1 point)”. For the same molecule, the “Tarsus articulation: Bone destruction” value [3, 6] was “+ (Mild: +; 1 point)”.
